{
  "source": "a melting point compilation (Tetko et al.; mined from patent text by program, amines drawn as free bases though some values may be those of a salt)",
  "data": [
    {"units": {"melting point": "°C"}, "values": [
      {"smiles": "Cc1cc(C(O)(C(F)(F)F)C(F)(F)F)cc(C)c1OCCN", "melting point": "167 to 169"},
      {"smiles": "Cc1cc(N2CCN(c3ccncc3)CC2)ccc1OCCCC(=O)O", "melting point": "261 to 262"},
      {"smiles": "O=C(NC1CCC(CCN2CCN(c3nccc4c3OCC4)CC2)CC1)C(O)C(F)(F)F", "note": "(racemic)", "melting point": 185},
      {"smiles": "CN(c1cccc2cc(C3=NCC(CC(N)=O)S3)[nH]c12)S(=O)(=O)c1nccs1", "note": "(stereo unspecified)", "melting point": "216 to 218"},
      {"smiles": "CN1CCC(OC(c2ccccc2)c2nc3cc(Cl)c(Cl)cc3[nH]2)CC1", "note": "(stereo unspecified)", "melting point": 221},
      {"smiles": "CCc1cccc(C)c1CNc1ccnc2c1nc(C)n2C", "melting point": "105 to 109"},
      {"smiles": "CCN1CCCC1CNC(=O)c1cc(S(C)(=O)=O)c(N)cc1OC", "note": "(stereo unspecified)", "melting point": "151 to 152"},
      {"smiles": "CSc1sc2[nH]c(=O)c(=O)[nH]c2c1C#N", "melting point": "> 225"},
      {"smiles": "CCCCNC(=O)Nc1ccc(NC)cc1C(=O)NCC1CCN(C(c2ccccc2)c2ccccc2)CC1", "melting point": "203 to 204"},
      {"smiles": "OCc1cccc(Nc2ncc(-c3ccccc3)s2)n1", "melting point": "196 to 198"},
      {"smiles": "C=C(c1cc(C(C)(C)C)cc2c1CCC2(C)C)c1sccc1C(=O)O", "melting point": "148 to 150"},
      {"smiles": "COc1ccc2c(c1)c1c(n2C)C2(C)CCC(=O)N2CC1", "note": "(stereo unspecified)", "melting point": "164 to 167"},
      {"smiles": "CN(CCO)Cc1cc(C(=O)c2ccc(Cl)cc2)cc(C(C)(C)C)c1O", "melting point": "126 to 127"},
      {"smiles": "CCOC(=O)c1cccc(-c2ccccc2C#N)c1", "melting point": "81.5 to 82"},
      {"smiles": "C=Cc1cnc2c(NC(=O)c3c(Cl)cccc3Cl)cccc2c1CC(=O)NCc1ccccn1", "melting point": "194 to 195"},
      {"smiles": "CC(C)(C)C(CSC(F)F)=NO", "melting point": "92 to 95"},
      {"smiles": "O=C1NCCc2ccc(OCCCCN3CCC(c4cccc(Cl)c4Cl)CC3)cc21", "melting point": "113 to 114"},
      {"smiles": "COc1cc2c(Nc3ccc(Sc4nccn4C)c(Cl)c3)c(C#N)cnc2cc1OCCCCl", "melting point": "271 to 276"},
      {"smiles": "CCC(C)n1c(Nc2cc(C(F)(F)F)ccc2C(F)(F)F)nc(C(F)(F)F)c(Cl)c1=O", "note": "(stereo unspecified)", "melting point": "133 to 135"},
      {"smiles": "CC(C)OC(=O)N1CCC(c2nc3ccc(-c4ccc(C(N)=O)c(F)c4)cc3o2)CC1", "melting point": "178 to 181"},
      {"smiles": "CC(C)(C)OC(=O)CN1C(=O)c2ccccc2S1(=O)=O", "melting point": "130 to 132"},
      {"smiles": "CCCn1c(=O)c(-c2ccccc2)c2n(c1=O)CCCS2(=O)=O", "melting point": "179 to 180"},
      {"smiles": "Cc1nnc(-c2ccc3occ(-c4ccc(S(C)=O)cc4Cl)c3c2)o1", "note": "(stereo unspecified)", "melting point": "175 to 176"},
      {"smiles": "COc1cc(Br)c(OC)c2c1C=CCC2", "melting point": "110 to 111"},
      {"smiles": "Cc1nnsc1C(=O)Nc1ccc(-n2nc(C3CC3)c(Cl)c2C2CC2)c(F)c1", "melting point": "153 to 156"},
      {"smiles": "CC(C)n1nc(-c2nc(C(N)=O)c(N)nc2Cl)ccc1=O", "melting point": "> 250"},
      {"smiles": "N#Cc1cccc(-n2c(=O)c(C(=O)Cc3ccccc3)c(O)c3cccnc32)c1", "melting point": "216 to 218"},
      {"smiles": "O=C1C(c2c[nH]c3ccccc23)=C(c2c[nH]c3ccccc23)C(=O)N1c1ccccc1", "melting point": "> 290"},
      {"smiles": "CCC1(CCCCCl)C(=O)Nc2ccc(C)cc21", "note": "(stereo unspecified)", "melting point": "79 to 80"},
      {"smiles": "CC(=O)Nc1c(C(=O)c2cccc(S(N)(=O)=O)c2)[nH]c2cc(Cl)ccc12", "melting point": "250 to 251"},
      {"smiles": "Clc1cc(Cl)cc(-c2nc(-c3ccccn3)no2)c1", "melting point": "162 to 166"},
      {"smiles": "O=C1c2ccccc2-c2[nH]nc(-c3ccncc3)c21", "melting point": "> 300"},
      {"smiles": "O=c1[nH]c2sc(-c3ccccc3)nc2c2ccccc12", "melting point": "> 310"},
      {"smiles": "CCC(C)(C)c1cc(-c2cccc(CC3SC(N4CCOCC4)=NC3=O)n2)ccc1O", "note": "(stereo unspecified)", "melting point": "240 to 242"},
      {"smiles": "CC[Si](CC)(CC)O[C@@H](C(=O)OC)[C@@H](NC(=O)OC(C)(C)C)c1ccc(C(N)=O)cc1", "melting point": 165},
      {"smiles": "CCN(CC)CCOc1ccc(C#Cc2ccc(OC)cc2)cc1", "melting point": "59 to 60"},
      {"smiles": "COC(=O)Cc1cc(NC(=O)OC(C)(C)C)c(NC(=O)CC(=O)c2cccc(C#N)c2)cc1C#Cc1ccccc1", "melting point": 138},
      {"smiles": "O=C(O)CCNC(=O)OCC(Cl)(Cl)Cl", "melting point": "89.4 to 91"},
      {"smiles": "COC(=O)c1cc(Cl)cnc1NCc1ccc(OC)cc1", "melting point": "75 to 77"},
      {"smiles": "CCC(=O)n1nc(-c2ccc(Cl)cc2)nc1C", "melting point": "108 to 109"},
      {"smiles": "Nc1cccc2c1-c1nc3ccccc3cc1CC2", "melting point": "138 to 140"},
      {"smiles": "CC(C)(C)c1cccc(CNC(c2ccccc2)C(NCc2cccc(C(C)(C)C)c2O)c2ccccc2)c1O", "note": "(stereo unspecified)", "melting point": "143 to 144"},
      {"smiles": "N#Cc1c(N2CCNCC2)c2cccnc2n(Cc2ccccc2)c1=O", "melting point": 211},
      {"smiles": "COc1cc(C(=O)Cl)ccc1OCc1ccccc1", "melting point": "63 to 65"},
      {"smiles": "COCCCn1c(O)nc2ccc(C(F)(F)F)cc21", "melting point": "83 to 84"},
      {"smiles": "Cc1nc2ccc(S(=O)(=O)n3c(CCCC(=O)O)cc4cc(C(F)(F)F)ccc43)cc2o1", "melting point": "214 to 220"},
      {"smiles": "CON=C(C)c1ccc(-c2ccccc2NC(=O)c2c(C)nn(C)c2F)cc1", "melting point": 153},
      {"smiles": "CCCCCCCCOc1cc2cc(C(=O)OC)c(C(=O)OC)c(-c3ccnc(Cl)c3)c2cc1OC", "melting point": "93 to 97"},
      {"smiles": "N#Cc1nn(-c2c(Cl)cc(C(F)(F)F)cc2Cl)c(N)c1-c1cccc2ccccc12", "melting point": 208},
      {"smiles": "COc1ccc(C(=O)Nc2cccnc2)cc1NCc1cccs1", "melting point": "154 to 155"},
      {"smiles": "CCS(=O)(=O)NC(=O)N1CC1C#N", "note": "(stereo unspecified)", "melting point": "70 to 73"},
      {"smiles": "O=C(O)CCC1CCN(C(=O)CN2CCN(c3ccncc3)CC2)CC1", "melting point": "90 to 92"},
      {"smiles": "Clc1nc(-n2cnc(-c3ccccc3)c2-c2ccccc2)c2[nH]cnc2n1", "melting point": 278},
      {"smiles": "Fc1cc(CC2(Cc3ccnc(F)c3)c3ccccc3-c3ncccc32)ccn1", "melting point": "137 to 140"},
      {"smiles": "Cn1cc(C2=C(c3c4n(c5ccccc35)CC3(CCN(C(=O)OC(C)(C)C)C3)C4)C(=O)NC2=O)c2ccccc21", "note": "(stereo unspecified)", "melting point": "232 to 235"},
      {"smiles": "Cc1ccc(S(=O)(=O)NC(=O)OCCc2ccc(-n3c(C(C)C)nc4c(C)nc(C)cc43)cc2)cc1", "melting point": 213},
      {"smiles": "O=C(Nc1cccc(S(=O)(=O)N2CCOCC2)c1)c1cnn2c(C(F)F)cc(-c3ccc(Cl)c(Cl)c3)nc12", "melting point": 231},
      {"smiles": "CC(=O)C1=C(C)NC(=O)N(C(C)=O)C1c1ccccc1", "note": "(stereo unspecified)", "melting point": "181 to 183"},
      {"smiles": "O=C1C=C(NC(=O)C(=O)c2cn(Cc3cccc(Cl)c3F)c3ccccc23)CO1", "melting point": "248 to 250"},
      {"smiles": "CCC1(NC(=O)c2cc(OC)ccn2)CCCCn2c1nc(-c1ccncn1)cc2=O", "note": "(racemic)", "melting point": "200 to 202"},
      {"smiles": "Cc1nc(-c2cc(N)c(=O)[nH]c2C)cs1", "melting point": "192 to 194"},
      {"smiles": "Cc1noc2cc3c(cc12)C1(CO3)C(=O)N(Cc2ccccc2C(F)(F)F)c2ccccc21", "note": "(stereo unspecified)", "melting point": "192 to 194"},
      {"smiles": "Brc1ccc(C2OCCO2)cc1", "melting point": "56 to 57"},
      {"smiles": "N#CC1(Nc2ccccc2)CCN(C2C3CCCC2CCC3)CC1", "note": "(stereo unspecified)", "melting point": 168},
      {"smiles": "C=CCC(C(=O)NC)c1ccccc1", "note": "(stereo unspecified)", "melting point": "97 to 99"},
      {"smiles": "N#Cc1ccc2ccc(Br)cc2c1", "melting point": "126 to 128"},
      {"smiles": "CCn1nc(C(F)(F)F)c(CS(=O)(=O)C2=NOC(C)(CCl)C2)c1S(C)(=O)=O", "note": "(stereo unspecified)", "melting point": "113 to 114"},
      {"smiles": "CCCc1nc(N)nc(N2CCOCC2)n1", "melting point": "127 to 128"},
      {"smiles": "CCOC(=O)NNC(=O)NCCOc1ccccc1", "melting point": "170 to 173"},
      {"smiles": "COC(=O)c1nc2ccc(Cl)cc2n1Cc1ccccc1", "melting point": "184 to 186"},
      {"smiles": "O=C1c2ccccc2C2(c3ccc(Cl)cc3)NCCN12", "note": "(stereo unspecified)", "melting point": "166 to 168"}
    ]}
  ]
}
